Assay results: patent US20050187188A1, “Methods for the treatment of a traumatic central nervous system injury” (Emory University, priority 2000, published 2005)
“Also recorded” adds a separate entry of the source.

Columns and labels:
contusion injury = settings: cited from earlier work
[1] = tested on: rats with bilateral contusions of the medial prefrontal cortex; experiment: Cell counts of Nissl-stained neurons (STR, GP, DMN, VMN), Example 6; assay type: in vivo, rat; settings: 4 mg/kg in peanut oil
Experimental: (§1) Male Sprague-Dawley rats (300 g) were housed individually in wire cages and kept on a reverse light-dark cycle (0800-2000 h). Animals were assigned to one of four groups: (1) lesion (n=7); (2) lesion +3 days progesterone (LP3; n=7); (3) lesion +5 days progesterone (LP5; n=7); and (4) Sham (n=8). All procedures involving animals conformed to guidelines set forth in the Guide for the Care and Use of Laboratory Animals (U.S. Department of Health and Human Services, Pub no. 85-23, 1985) and were approved by the Emory University Institutional Animal Care and Use Committee.
Bilateral contusions of the medial prefrontal cortex were created by a pneumatic impactor device as previously described. Briefly, rats were given anesthetized with ketamine/xylazine (90 mg/kg; 10 mg/kg) and placed in a stereotaxic apparatus. A craniectomy (diameter 6 mm) was made over the midline of the prefrontal cortex with its center 1.5 mm AP to bregma. […]
Cell counts were done on an Olympus BH-2 microscope equipped with an eyepiece micrometer grid (sample area=40 μm^2 at ×400 magnification). […] Only cells with neuronal nuclei and intact membranes were counted as neurons.
Experienced individuals who were blind to treatment conditions of the study conducted all histological and behavioral analyses. All data were tested for normality and homoschedasticity before being analyzed by parametric analysis of variance (ANOVA). MWM results were analyzed using separate mixed-factorial (4 groups×5 days) analysis of variance (ANOVA) on each of the two 5-day testing periods (acquisition and retention respectively). Results of the BSN task were analyzed using the mixed-factorial ANOVA (4 groups×2 post-injury trials). […] Pearson r coefficients were calculated to determine whether significant correlations could be detected between histological (e.g., lesion size and cellular density) and behavioral parameters (e.g., acquisition and retention of the MWM task and measures of sensory neglect).

TNFα = TNFα mRNA expression in brain tissue after contusion, real-time quantitative PCR; assay type: in vivo, rat; settings: 3 hours and 6 days post-injury
Description: (§2) Neurosteroid injections were given at 1 hr and 6 hrs after the contusions, and continued once a day for up to 5 consecutive days post-injury.
(§3) Adult male SD rates received either bilateral prefrontal cortical contusions or sham surgeries. The neurosteroid injections were given at 1 hr and 6 hr after the contusions and continued once a day for up to 5 consecutive days post-injury. At 3 hr, 8 hr, 12 hr and 6 days post-injury, the rats were killed and their brains were processed for mRNA extraction. Expression of mRNA for IL-1β and TNFα were assessed using real-time quantitative PCR.

IL-1β = IL-1β mRNA expression in brain tissue after contusion, real-time quantitative PCR; assay type: in vivo, rat
Description: as §2, §3

[2] = tested on: rats with bilateral contusions of the medial prefrontal cortex; experiment: Bilateral sensory neglect (BSN) task, Example 6; assay type: in vivo, rat; settings: 3 days (LP3); 6 and 20 days post injury
Experimental: as §1
Bilateral contusions of the medial prefrontal cortex were created by a pneumatic impactor device as previously described. […]
Experienced individuals who were blind to treatment conditions of the study conducted all histological and behavioral analyses. All data were tested for normality and homoschedasticity before being analyzed by parametric analysis of variance (ANOVA). MWM results were analyzed using separate mixed-factorial (4 groups×5 days) analysis of variance (ANOVA) on each of the two 5-day testing periods (acquisition and retention respectively). Results of the BSN task were analyzed using the mixed-factorial ANOVA (4 groups×2 post-injury trials). […]
Measures of attentional abilities, using a bilateral sensory neglect (BSN) task, were recorded one day prior to surgery (baseline) and on postsurgical days 6 and 20. […]

cell death = settings: by attenuating release of inflammatory cytokines; cited from earlier work
[3] = tested on: blood-brain barrier (BBB); settings: in vitro; macromolecules vs ions such as sodium; cited from earlier work

CC(=O)[C@H]1CC[C@H]2[C@@H]3CCC4=CC(=O)CC[C@]4(C)[C@H]3CC[C@]12C [progesterone]
post injury cerebral edema (contusion injury; following a contusion injury): reduces the severity of post injury cerebral edema | neuronal loss in the LMDN (contusion injury; previous studies with this injury model): can significantly reduce this neuronal loss | injury-induced neuronal loss (STR, GP, DMN, VMN) ([1]; 3 days (LP3)): significant reduction of injury-induced neuronal loss in all brain regions examined | injury-induced neuronal loss (STR, GP, DMN, VMN) ([1]; 5 days (LP5)): significant reduction of injury-induced neuronal loss in all brain regions examined | neuronal loss in the VMN ([1]; 5 days (LP5)): more effective than 3 days at attenuating neuronal loss in the VMN; also recorded: significant reductions in cell loss of the VMN | TNFα mRNA expression (TNFα): reduced the expression of both IL-1β and TNFα | IL-1β mRNA expression (IL-1β; 3 hours and 6 days post-injury): reduced the expression of both IL-1β and TNFα | IL-1β mRNA expression (IL-1β; 8 hrs post-injury): but not progesterone, enhanced | BSN task performance [2]: impaired on this task compared to control animals | cell death in vitro (cell death): prevent cell death in vitro | permeability of the BBB [3]: reduce the permeability of the BBB to macromolecules, but not ions
